Measured values from patent US20050119461A1, “Novel receptor, and compounds which bind thereto” (THE UNIVERSITY OF MELBOURNE, priority 1997, published 2005).
Like-named read-outs stand apart in the source and are kept apart here.

How the values were obtained:
[1] = target: Ox receptor; assay: Ox receptor binding, [3H]-rilmenidine displacement in human brain homogenates; details: for Ki / Selectivity Ox/I2: human brain homogenates; for Ki: Table 5, read-out: Receptor Affinities (nM) Ox; for Selectivity Ox/I2: >1 = selectivity for the Ox receptor
[2] = target: I2-receptor; assay: I2-receptor binding, [3H]-idazoxan displacement in human brain homogenates; details: for Ki: human brain homogenates, Table 5, read-out: Receptor Affinities (nM) I2
[3] = system: Ox receptor; assay: Ox receptor binding, [3H]-rilmenidine displacement in rat brain homogenates; details: for Ki: read-out: Receptor Affinities (nM) Ox; for affinity for the Ox receptor (in words): rat
[4] = target: α2-adrenoceptor; assay: α2-adrenoceptor binding, [3H]-methoxyidazoxan displacement in rat brain homogenates; details: for Ki: rat brain homogenates, Table 4, read-out: Receptor Affinities (nM) α2; for affinity for the α2-adrenoceptor (in words): rat
[5] = target: I2-receptor; assay: I2-receptor binding, [3H]-idazoxan displacement in rat brain homogenates; details: for Ki: rat brain homogenates, Table 3, read-out: Receptor Affinities (nM) I2; for affinity for the I2-receptor (in words): rat
Protocol: Male WKY rats are stunned and decapitated.
Brain membranes prepared as above, are incubated in the presence of [^3H]-methoxyidazoxan (52-57 Ci/mmol) 0.5 nM or [^3H]-idazoxan (43-45Ci/mmol) 1.6 nM in Tris.HCl buffer pH 7.4 for α2-adrenoceptor and I2-receptor binding respectively. Inhibition of binding is measured in the presence of increasing amounts of test compound (0.1 nM to 1 mM). Non-specific binding is estimated by addition of 10 μM phentolamine or 100 μM cirazoline respectively. Membrane bound radioactivity is isolated and measured as above by vacuum filtration, washing and scintillation counting. Data is analysed by the “RADLIG” program.

[6] = system: Ox receptor; assay: Selectivity data of Table 1 (Ox over alpha2), tissue not stated; format: binding; details: tissue and species not stated
Text: The term “selectivity” as used herein refers to the selectivity of a compound for the Ox receptor over another receptor in mammalian tissue containing said receptors. The selectivity is the reciprocal of the ratio of the affinities (in nM) for each receptor site. Preferably the tissue is human tissue.
The compounds prepared above are represented in Table 1 below together with selectivity data where available.

[7] = rat brain homogenates, reciprocal of the ratio of affinities, >1 = more selective for Ox site
[8] = human brains, compared with rat

| affinity for the Ox receptor (in words) [3] | Selectivity Ox/α2 [3, 7] | affinity for the α2-adrenoceptor (in words) [4] | affinity for the I2-receptor (in words) [5] | Selectivity Ox/I2 [3, 7] | affinity for the Ox receptor (in words) [1, 8] | affinity for the I2-receptor (in words) [2, 8] | Structure (SMILES) | Ki [1] [nM] | Selectivity Ox/I2 [1] | Ki [2] [nM] | Selectivity Ox/I2 [3] | Selectivity Ox/α2 [3] | Ki ([3]; rat brain homogenates, Table 3) [nM] | Ki ([3]; rat brain homogenates, Table 4) [nM] | Ki [4] [nM] | Ki [5] [nM] | Selectivity Ox/apha2 [6] |
| --- | --- | --- | --- | --- | --- | --- | --- | --- | --- | --- | --- | --- | --- | --- | --- | --- | --- |
| – | – | – | – | – | – | – | FC(F)(F)C(NC1=NCCO1)C1CC1 (single isomer, unassigned; (+)) [(+)-S8349] | 268 | 49 | 13000 | – | – | – | – | – | – | – |
| – | – | – | – | – | – | – | FC(F)(F)C(NC1=NCCO1)C1CC1 (single isomer, unassigned; (-)) [(−)-S8350] | 199 | 32 | 7700 | – | – | – | – | – | – | – |
| – | – | – | – | – | – | – | C[C@@H](NC1=NCCO1)C1CCCCC1 [(R)-(−)-O504, (R-(−)-2-(1-Cyclohexylethylamino)-oxazoline)] | 300 | 9 | 2700 | 1.8 | 18 | 31 | 32 | 590 | 56 | – |
| – | – | – | – | – | – | – | C[C@H](NC1=NCCO1)C1CCCCC1 [(S)-(+)-O504, (S)-(+)-2-(1-Cyclohexylethylamino)-oxazoline] | 180 | 12 | 2190 | 6.7 | 1.5 | 106 | 20 | 30 | 707 | – |
| – | – | – | – | – | – | – | C[C@H](NC1=NCCO1)c1cccc2ccccc12 [(S)-(−)-O506] | 99 | 77 | 7580 | – | – | – | – | – | – | – |
| – | – | – | – | – | – | – | CCC1CCCC(C)C1NC1=NCCO1 (stereo not shown) [BAY-A6781] | 215 | 38 | 8250 | – | – | – | – | – | – | – |
| poor (μM) affinity | <0.1 | poor affinity (μM) | high affinity (nM) | – | – | – | c1ccc2nc(C3=NCCN3)ccc2c1 [BU-224, 2-(4,5-dihydroimidaz-2-yl)quinoline] | 9580 | 0.0002 | 2.2 | – | – | > 100000 | > 100000 | 5480 | 0.9 | – |
| – | – | – | – | – | – | – | CCC1CCCC(CC)C1NC1=NCCO1 (stereo not shown) [Compound O501] | 38 | 239 | 9100 | 383 | 12 | 18 | 18 | 210 | 6900 | – |
| – | – | – | – | – | – | – | c1ccc(C(NC2=NCCO2)c2ccccc2)cc1 [Compound O502] | 234 | 3 | 686 | 12 | 2.4 | 160 | 160 | 380 | 1900 | – |
| – | – | – | – | – | – | – | C1CCC(C(NC2=NCCO2)C2CCCCC2)CC1 [Compound O503] | 70 | 69 | 4800 | 32 | 5.5 | 117 | 117 | 640 | 3800 | – |
| – | – | – | – | – | – | – | Oc1ccc(CCNC2=NCCO2)cc1 [Compound O508, 2-(4-hydroxyphenyl)ethylaminooxazoline] | – | – | – | – | – | – | – | – | – | 100 |
| – | – | – | – | – | – | – | CC(CNC1=NCCO1)c1ccc(OCc2ccccc2)cc1 (stereo not shown) [Compound O509, 2-(4-benzyloxyphenyl)propylaminooxazoline] | – | – | – | – | – | – | – | – | – | 2.0 |
| poor (μM) affinity | 0.0003 | high affinity (nM) | high affinity (nM) | 0.00004 | – | – | c1ccc2c(c1)OCC(C1=NCCN1)O2 (stereo not shown) [Idazoxan, 2-(1,4-benzodioxan)-imidazoline] | 6060 | 0.0008 | 4.8 | – | – | 62300 | 62300 | 15.6 | 2.3 | – |
| high affinity (nM) | 27 | – | high affinity (nM) | 2.4 | lower affinity | lower affinity | C1COC(NC(C2CC2)C2CC2)=N1 [Rilmenidine] | 396 | 13 | 5220 | – | – | 15 | 15 | 410 | 36 | – |

| Structure (SMILES) | affinity for the Ox receptor (in words) [3] | Selectivity Ox/α2 [3, 7] | affinity for the α2-adrenoceptor (in words) [4] | affinity for the I2-receptor (in words) [5] | Selectivity Ox/I2 [3, 7] | affinity for the Ox receptor (in words) [1, 8] | affinity for the I2-receptor (in words) [2, 8] | Ki [1] [nM] | Selectivity Ox/I2 [1] | Ki [2] [nM] | Selectivity Ox/I2 [3] | Selectivity Ox/α2 [3] | Ki ([3]; rat brain homogenates, Table 3) [nM] | Ki ([3]; rat brain homogenates, Table 4) [nM] | Ki [4] [nM] | Ki [5] [nM] | Selectivity Ox/apha2 [6] |
| --- | --- | --- | --- | --- | --- | --- | --- | --- | --- | --- | --- | --- | --- | --- | --- | --- | --- |
| COC1(C2=NCCN2)COc2ccccc2O1 (stereo not shown) [Methoxyidazoxan, 2-(2-methoxy-1,4-benzodioxan)-imidazoline)] | poor affinity (μM) | – | high affinity (nM) | poor affinity (μM) | – | – | – | 100000 | 1 | > 100000 | 0.08 | – | 319000 | 319000 | 1.9 | 24400 | – |
